Columns and labels:
[1] = target: T1, tDGC (GGDEF domain of TM1788) (Thermotoga maritima, UniProt Q9X2A8, D177A); test: gel filtration; assay type: binding; settings: I-site; co-purified ligand
T1 construct: gene TM_1788; GGDEF domain, residues 82-248 of 248, N-terminal His6 tag, pET28b (salt-bridge mutants in pET22b), E. coli BL21(DE3); dimer with c-di-GMP, monomer without nucleotide

[2] = target: T2, tDGC (GGDEF domain of TM1788) (Thermotoga maritima, UniProt Q9X2A8, R233A); test: gel filtration; assay type: binding; settings: I-site; co-purified ligand
T2 construct: gene TM_1788; GGDEF domain, residues 82-248 of 248, N-terminal His6 tag, pET28b (salt-bridge mutants in pET22b), E. coli BL21(DE3); dimer with c-di-GMP, monomer without nucleotide
T2 sequence (Q9X2A8 entry or part of it R233A): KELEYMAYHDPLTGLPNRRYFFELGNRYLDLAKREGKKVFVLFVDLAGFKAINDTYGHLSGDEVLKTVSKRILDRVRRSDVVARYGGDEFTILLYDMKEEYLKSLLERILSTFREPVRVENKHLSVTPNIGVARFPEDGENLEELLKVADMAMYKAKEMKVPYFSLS

[3] = target: T3, tDGC (GGDEF domain of TM1788) (Thermotoga maritima, UniProt Q9X2A8); test: X-ray crystallography; assay type: binding; settings: feedback-inhibitory I-site (158-RxxD-161, secondary R115); co-purified ligand; inactive dimer crystals pH 6.5 (2.27 Å), active-like dimer crystals pH 4.0 (1.9 Å)
T3 construct: gene TM_1788; GGDEF domain, residues 82-248 of 248, N-terminal His6 tag, pET28b (salt-bridge mutants in pET22b), E. coli BL21(DE3); dimer with c-di-GMP, monomer without nucleotide
T3 sequence (Q9X2A8 entry or part of it): as the sequence (Q9X2A8 entry or part of it R233A) above, with A152R counted along it

RocR = target: T4, RocR (Pseudomonas aeruginosa, UniProt Q9HX69); test: hydrolysis of tDGC-bound c-di-GMP to pGpG, gel filtration and mass spectrometry; assay type: biochemical; settings: 25 mM Tris-HCl, 300 mM NaCl, 5% glycerol, 10 mM MgCl2, 2 h, room temperature
T4 construct: recombinant RocR phosphodiesterase, expressed and purified as in cited earlier work
T4 sequence (Q9HX69 whole entry): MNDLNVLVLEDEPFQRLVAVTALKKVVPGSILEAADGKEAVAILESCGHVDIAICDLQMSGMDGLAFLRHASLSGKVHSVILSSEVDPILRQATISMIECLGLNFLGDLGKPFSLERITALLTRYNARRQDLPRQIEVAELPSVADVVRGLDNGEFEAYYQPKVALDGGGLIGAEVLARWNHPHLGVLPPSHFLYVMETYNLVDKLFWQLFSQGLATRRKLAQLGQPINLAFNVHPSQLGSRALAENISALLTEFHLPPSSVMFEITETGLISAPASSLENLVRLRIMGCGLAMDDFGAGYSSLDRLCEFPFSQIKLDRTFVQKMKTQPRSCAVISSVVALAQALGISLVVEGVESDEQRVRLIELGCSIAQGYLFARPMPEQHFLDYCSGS

[4] = target: T3, tDGC (GGDEF domain of TM1788); test: thermal unfolding by circular dichroism at […] nm; assay type: binding; settings: 20 mM Tris-HCl pH 8.5, 250 mM NaCl, 5% glycerol, 10 mM MgCl2, 0.8 mg/ml; co-purified ligand at I-site
[5] = target: T5, tDGC (GGDEF domain of TM1788) (Thermotoga maritima, UniProt Q9X2A8, E196A); test: gel filtration; assay type: binding; settings: I-site; co-purified ligand
T5 construct: gene TM_1788; GGDEF domain, residues 82-248 of 248, N-terminal His6 tag, pET28b (salt-bridge mutants in pET22b), E. coli BL21(DE3); dimer with c-di-GMP, monomer without nucleotide
T5 sequence (Q9X2A8 entry or part of it E196A): as the sequence (Q9X2A8 entry or part of it R233A) above, with E115A, A152R counted along it

T1 sequence (Q9X2A8 entry or part of it D177A): as the sequence (Q9X2A8 entry or part of it R233A) above, with D96A, A152R counted along it

Question: `Nc1nc2c(ncn2[C@@H]2O[C@@H]3COP(=O)(O)O[C@H]4[C@@H](O)[C@H](n5cnc6c(=O)[nH]c(N)nc65)O[C@@H]4COP(=O)(O)O[C@H]3[C@H]2O)c(=O)[nH]1` [c-di-GMP] was tested. Which “gel filtration” value [1] did it give?
Answer: The three mutants eluted as dimers in gel filtration, indicating that c-di-GMP is bound

Question: And the “gel filtration” value [2]?
Answer: The three mutants eluted as dimers in gel filtration, indicating that c-di-GMP is bound

Question: And the structure [3]?
Answer: The wild type tDGC protein co-purifies with c-di-GMP and co-crystallizes without any extraneous addition of ligand

Question: What about the “hydrolysis of tDGC-bound c-di-GMP to pGpG, gel filtration and mass spectrometry” value (RocR) of the same compound?
Answer: Following incubation of the wild type tDGC bound to c-di-GMP with RocR

Question: What about the “Tm (c-di-GMP-bound dimer; nucleotide-free monomer 85.5)” value [4] of the same compound?
Answer: 85.0 °C

Question: What about the “gel filtration” value [5] of the same compound?
Answer: The three mutants eluted as dimers in gel filtration, indicating that c-di-GMP is bound

From PMC4215984, “Structure of a Diguanylate Cyclase from Thermotoga maritima: Insights into Activation, Feedback Inhibition and Thermostability” (PLoS ONE, 2014)
